US7893289B2, “Adamantanamines and neramexane salts of thiomolybdic and thiotungstic acids” (SSV Therapeutics, Inc., priority 2007, dated 2011)

What was measured:
NMDA receptor = experiment: Blockage of NMDA-induced seizure activity and lethality in mice pretreated with the antagonist; format: in vivo; conditions: for mice survived following NMDA induced seizures: male CD-1 mice, groups of 5, sc 20 min before NMDA 200 mg/kg IP, 4 h observation, highest equivalent memantine dose (memantine hydrochloride 30 mg/kg sc); for protection in the NMDA-induced seizure/mortality test: sc, Example 4 at equivalent memantine dose, Examples 1 and 2 administered as suspensions
Excerpt: Briefly, the test measures blockage of seizure activity and lethality in mice produced by the administration of NMDA when pretreated with the antagonists. [see Leander, J. D., et al., Brain Res. 448, 115-120 (1988) and Parsons, C. G., et al., Neuropharmacol 34, 1239-1258; (1995)].
Test protocol: Groups of 5 male CD-1 mice weighing 24±2 g were used. Male CD-1 (Crl.) mice were provided by BioLasco Taiwan (under Charles River Laboratories Technology License). Space allocations for animals were as follows: 29×18×13 cm for 5 mice. Mice were maintained in a controlled temperature (22° C.-24° C.) and humidity (60%-80%) environment with 12 h light/dark cycles for at least one week in MDS Pharma Services—Taiwan Laboratory prior to use. Free access to standard lab chow for mice [MF-18 (Oriental Yeast Co., Ltd., Japan)] and RO water was granted. [All aspects of this work including housing, experimentation and disposal of animals were performed in general accordance with the Guide for the Care and Use of Laboratory Animals (National Academy Press, Washington, D.C., 1996).]
Test substance was administered by subcutaneous (sc) injection 20 min before challenge with NMDA 200 mg/kg by intraperitoneal injection (IP). The animals were placed individually in glass jars and observed over a period of 4 h for presence of clonic convulsions, tonic convulsions and mortality. The onset of clonic and tonic convulsions as well as death was recorded and incidence of clonic seizures, tonic seizures and death was reported. Inhibition of NMDA (200 mg/kg, IP)-induced tonic convulsions/mortality (mainly mortality) in more than 50 percent (>50%) of the 5 mice during the following 4 h indicates possible NMDA receptor antagonist activity. Memantine hydrochloride at 30 mg/kg sc was used as positive control.
The vehicle used for dissolution was 20% aqueous DMSO.

[1] = ambient conditions in air and humidity, after 50 days; cited from earlier work
[2] = Solubility in the dosing vehicle (20% aqueous DMSO); format: physicochemical

Molecule: CC12CC3CC(C)(C1)CC([NH3+])(C3)C2.CC12CC3CC(C)(C1)CC([NH3+])(C3)C2.[S]=[Mo](=[S])([S-])[S-] [Example 3, Bis(1-ammonium-3,5-dimethyladamantane) tetrathiomolybdate]
- more effective than memantine at an equivalent dose (NMDA receptor; NMDA-induced clonic seizures and mortality in mice, equivalent dose (30 mg)): 40%
- mice survived following NMDA induced seizures (NMDA receptor): 4/5
- inhibition of NMDA-induced clonic seizures and mortality (NMDA receptor; mice, sc pretreatment at three doses, NMDA 200 mg/kg IP): in a dose dependent manner
- time to seizures (NMDA receptor; mice, highest equivalent memantine dose, compared with memantine): notably prolonged
- protection from tonic seizures (NMDA receptor; mice, low, medium and high doses, without DMSO solvate, similar to the high dose of memantine): protected from tonic seizures

Molecule: CC1(C)CC(C)(C)CC(C)([NH3+])C1.CC1(C)CC(C)(C)CC(C)([NH3+])C1.[S]=[Mo](=[S])([S-])[S-] [Example 4, Bis(1-ammonium-1,3,3,5,5-pentamethylcyclohexane)tetrathiomolybdate]
- protection in the NMDA-induced seizure/mortality test (NMDA receptor; mice): complete protection

Molecule: [NH4+].[NH4+].[SH-].[SH-].[S]=[Mo]=[S] [TM, diammonium tetrathiomolybdate]
- loss in activity [1]: ~55%

Molecule: CC12CC3CC(C)(C1)CC(N)(C3)C2 [memantine, 1-amino-3,5-dimethyladamantane, reference compound]
- mice survived following NMDA induced seizures (NMDA receptor): 5/5

Molecule: Bis(1-methylammoniumadamantane) tetrathiomolybdate [Example 2]
- protection in the NMDA-induced seizure/mortality test (NMDA receptor; mice): not protective
- solubility in the vehicle [2]: inadequate solubility
